In the data set the test system is primary hepatocytes. The conditions noted are these: mouse, 24 h. On the procedure: Fifty μL of the sample to be quantified and 100 μL of acetonitrile were mixed, centrifuged at 14000 rpm for 10 minutes and the obtained supernatant (130 μL) was dried in nitrogen gas and was dissolved in a solution (10 mM potassium phosphate:acetonitrile, 65%:35% (v/v)) and measured by HPLC (Shimazu Prominence LC-20A) at flow rate of 1 mL/min and at an absorbance of 245 nm for 10 minutes.

Take `CCOc1ccc(NC(C)=O)cc1` [phenacetin]: the “decrease of the drug administered” value (50 μM) is reported as 75-85%. For the setting “500 μM”, the “concentration of phenacetin detected in the culture” value lay within 350 to 400 µM, the “concentration of phenacetin detected in the culture medium” value came to 350 µM and the “concentration of phenacetin measured in the culture” value was “about 200 μM”.

(Values after patent publication US11685900B2, “Nanofiber-based long-term primary hepatocyte three-dimensional culture system and culturing method” (NANOFAENTECH CO., LTD., priority 2017, dated 2023).)
